Source: patent US20230072421A1, “TARGETED RADIOPHARMACEUTICALS FOR THE DIAGNOSIS AND TREATMENT OF PROSTATE CANCER” (Bayer AS, priority 2019, published 2023)

Experiments:
[1] = test system: LNCaP cells; assay: Cell proliferation assay (CellTiter-Glo, 5-day exposure), LNCaP; type: cell-based, human; details: compared to 1-PEG-227Th and 46-E 227Th
Description: Inhibition of cell proliferation of Thorium-227 labeled PMSA SMOL ligands was tested different prostate cancer cell lines, namely 22Rv1, VCaP, C4-2 (all from ATCC, Manassas, Va., USA) and LNCaP (DMSZ, Braunschweig). Cells were seeded using the following conditions in 384 well plates (Corning) in 30 μl of growth media at 4000 cells/well for VCaP cells and 1000 cells/well for 22Rv1, C4-2 and LNCaP cells.
Cells were cultivated an incubator at 37° C. and 5% C02 over night. On the following days cells were treated in triplicates with serial dilutions of PSMA-SMOLs labeled with Th-227 at a specific activity of 375 kBq/nmol (RCP>70% as assessed by iTLC analysis; compounds where RCP was between 50-70% in individual experiments are marked with an * in the table) using a D300e Digital Dispenser (Tecan). In sister plates cell viability at treatment start (d=0) was determined using CellTiter-Glo® assay (CTG, Promega, Madison, Wis., USA), by adding 30 μl per well CTG solution, incubation for 10 min and reading of Luminescence in a PheraStarFSX instrument (BMG Labtech). After a 5-day exposure in the presenced of test compounds, cell viability of treated or untreated control cells was determined again using CellTiter-Glo® assay (Promega, Madison, Wis., USA). […] The DRC software is a Biobook Spreadsheet that was developed by Bayer AG and Bayer Business Services on the IDBS E-Workbook Suite platform (IDBS: ID Business Solutions Ltd., Guildford, UK).

[2] = biological target: T1, PSMA-expressing LNCaP cells (Homo sapiens, UniProt Q04609); assay: Internalization assay (membrane bound and internalized Th-227); type: cell-based
T1 construct: PSMA-expressing LNCaP cells; endogenous in cells; host or cells: LNCaP
Description: For internalization assays 24 well plates (#3526, Corning) were coated with 200 μl Poly-L-Lysine (0.1 mg/ml, #3438-100-01, Fa. Cultrex) per well for 2 h at 37° C. […] Cells were incubated at 37° C. and 5% CO2 over night. On the following day 400 μl of the media were removed and a total of 200 μl growth medium added supplemented with PSMA-SMOLs labeled with Th-227 at 375 kBq/nmol in triplicates. Radiochemical purity of the labeling was analyzed by instant thin layer chromatography and found to be above 70% for all compounds used. The final concentration of radiolabeled SMOLs was in the test wells was 10 nM. Cells were incubated for 30 min or 2 h. After the incubation time supernatants were taken off and cells washed with PBS. Thereafter cells were washed twice with 0.2 ml 50 mM Glycine-HCl buffer (#55097, Sigma Aldrich) and once with PBS and the washing solutions combined in counting vials (#TK75-018, Fa. Corning) and subjected to gamma counting (1470 Wizard automatic gamma counter, Wallac). The resulting counts were attributed to membrane bound radioactivity. Cells were then lysed with 500 μl 0.3N NaOH (#181691.1211, Fa. PanReac AppliChem ITW Reagents) followed by another wash with 500 μl PBS. The NaOH lysate as well as the final wash were combined in vials and subjected to gamma counting as described above. Measured radioactivity was attributed to internalized fraction. Results were calculated as fmol of Th-227 per/10^cells in the membrane bound and internalized fractions from triplicate values.

[3] = test system: LNCaP human prostate cancer cells; assay: LNCaP xenograft efficacy study (T/C tumor area); type: in vivo, SCID mice; details: Example II; 750 kBq/kg weekly for 5 weeks; day 120
In short: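 SCID mice with testosterone pellet bearing s.c. flank LNCaP xenografts (5×10^6 cells in Matrigel) were treated i.v. with a defined radioactive dose once tumors reached 35-50 mm^2 (n=10/group). Tumor area (caliper, longest diameter × perpendicular) measured 2-3× weekly; T/C ratio calculated from tumor areas when vehicle group closed.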

[4] = Biodistribution study in LNCaP tumor-bearing mice (Th227 counted in organs); type: in vivo, SCID mice; details: 500 kBq/kg; for Th-227 in Blood / Th-227 in Femur bone / Th-227 in Kidneys / Th-227 in Liver / Th-227 in Spleen / Th-227 in Tumor / Th-227 in salivary glands: study b3004
In short: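 Th227 in excised, weighed organs was counted with a Germanium detector at predetermined time points (n=3 mice each). This followed one i.v. injection of radiolabelled compound into testosterone-supplemented SCID mice carrying LNCaP xenografts in Matrigel, dosed once tumors reached ~50 mm^2.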

[5] = 10 nM radiolabeled compound, Th-227 at 375 kBq/nmol, 30 min incubation, triplicates
[6] = 10 nM radiolabeled compound, Th-227 at 375 kBq/nmol, 2 h incubation, triplicates
[7] = comparison of % injected dose per gram tissue

T1 sequence (Q04609 whole entry): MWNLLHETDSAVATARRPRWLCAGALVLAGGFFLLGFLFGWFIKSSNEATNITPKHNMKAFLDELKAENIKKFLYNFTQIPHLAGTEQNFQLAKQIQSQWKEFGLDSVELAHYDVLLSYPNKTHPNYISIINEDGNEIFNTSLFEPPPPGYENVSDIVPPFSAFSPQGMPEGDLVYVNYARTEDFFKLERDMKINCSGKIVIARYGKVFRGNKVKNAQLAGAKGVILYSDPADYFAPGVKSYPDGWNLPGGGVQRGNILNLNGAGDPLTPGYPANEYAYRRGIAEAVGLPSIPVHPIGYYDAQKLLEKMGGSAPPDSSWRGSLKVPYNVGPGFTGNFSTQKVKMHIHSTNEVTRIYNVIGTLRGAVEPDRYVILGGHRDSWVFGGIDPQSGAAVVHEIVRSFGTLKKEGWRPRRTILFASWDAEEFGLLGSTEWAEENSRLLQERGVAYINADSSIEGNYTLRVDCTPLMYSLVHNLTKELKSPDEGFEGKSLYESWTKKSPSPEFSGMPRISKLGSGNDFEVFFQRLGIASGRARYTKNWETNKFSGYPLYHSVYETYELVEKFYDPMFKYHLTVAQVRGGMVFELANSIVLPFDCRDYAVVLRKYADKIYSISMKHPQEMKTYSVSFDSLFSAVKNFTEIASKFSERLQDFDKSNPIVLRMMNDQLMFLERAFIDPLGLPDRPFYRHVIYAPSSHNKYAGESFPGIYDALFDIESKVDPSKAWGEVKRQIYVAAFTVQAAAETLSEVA

CC1=CC2=C3[O][227Th-5]45678([O]C9=C(C=C(C)N(CC(=O)O)C9=[O+]4)C(=O)NCCN(CCCN(CCNC(=O)C4=C([O]5)C(=[O+]6)N(CC(=O)O)C(C)=C4)CCNC(=O)C4=C([OH+]7)C(=[O+]8)N(CC(=O)NC[C@H]5CC[C@H](C(=O)N[C@@H](Cc6ccc7ccccc7c6)C(=O)NCCCC[C@H](NC(=O)N[C@@H](CCC(=O)O)C(=O)O)C(=O)O)CC5)C(C)=C4)CCNC2=O)[O+]=C3N1CC(=O)O [1-C monomer-227Th]
antiproliferative activity on LnCap cells (in words) [1]: superior antiproliferative activity
Internalized in LNCaP fmol/10^6 cells 30 min [2, 5]: 84 fmol/10^6 cells
Membrane bound in LNCaP fmol/10^6 cells 30 min [2, 5]: 105 fmol/10^6 cells
Internalized in LNCaP fmol/10^6 cells 2 h [2, 6]: 291 fmol/10^6 cells
Membrane bound in LNCaP fmol/10^6 cells 2 h [2, 6]: 260 fmol/10^6 cells
intracellular radioactivity on PSMA-expressing LNCaP cells (in words) ([2]; after 30 min and 2 h, compared to 1-B-227Th bearing a DOTA chelator): increased intracellular radioactivity
Tumor response [3]: full response
Accumulation in the tumor (in words) [4, 7]: much higher accumulation in the tumor
Background in blood, liver and spleen (in words) [4, 7]: lower background compared to 1-F-227Th
Th-227 in Blood ([4]; 1 h): 0.63 % ID Th-227/g organ
Th-227 in Femur bone ([4]; 1 h): 0.96 % ID Th-227/g organ
Th-227 in Kidneys ([4]; 1 h): 119.59 % ID Th-227/g organ
Th-227 in Liver ([4]; 1 h): 0.69 % ID Th-227/g organ
Th-227 in Spleen ([4]; 1 h): 4.69 % ID Th-227/g organ
Th-227 in Tumor ([4]; 1 h): 31.73 % ID Th-227/g organ
Th-227 in salivary glands ([4]; 1 h): 9.62 % ID Th-227/g organ
Th-227 in Blood ([4]; 24 h): 0.03 % ID Th-227/g organ
Th-227 in Femur bone ([4]; 24 h): 1.08 % ID Th-227/g organ
Th-227 in Kidneys ([4]; 24 h): 72.59 % ID Th-227/g organ
Th-227 in Liver ([4]; 24 h): 0.35 % ID Th-227/g organ
Th-227 in Spleen ([4]; 24 h): 1.79 % ID Th-227/g organ
Th-227 in Tumor ([4]; 24 h): 16.36 % ID Th-227/g organ
Th-227 in salivary glands ([4]; 24 h): 1.41 % ID Th-227/g organ
Th-227 in Blood ([4]; 72 h): 0.01 % ID Th-227/g organ
Th-227 in Femur bone ([4]; 72 h): 1.12 % ID Th-227/g organ
Th-227 in Kidneys ([4]; 72 h): 24.80 % ID Th-227/g organ
Th-227 in Liver ([4]; 72 h): 0.36 % ID Th-227/g organ
Th-227 in Spleen ([4]; 72 h): 0.76 % ID Th-227/g organ
Th-227 in Tumor ([4]; 72 h): 9.02 % ID Th-227/g organ
Th-227 in salivary glands ([4]; 72 h): 1.13 % ID Th-227/g organ
Th-227 in Blood ([4]; 168 h): 0.00 % ID Th-227/g organ
Th-227 in Femur bone ([4]; 168 h): 1.28 % ID Th-227/g organ
Th-227 in Kidneys ([4]; 168 h): 12.66. % ID Th-227/g organ
Th-227 in Liver ([4]; 168 h): 0.33 % ID Th-227/g organ
Th-227 in Spleen ([4]; 168 h): 0.78 % ID Th-227/g organ
Th-227 in Tumor ([4]; 168 h): 6.20 % ID Th-227/g organ
Th-227 in salivary glands ([4]; 168 h): 1.23 % ID Th-227/g organ
Th-227 in Blood ([4]; 336 h): 0.00 % ID Th-227/g organ
Th-227 in Femur bone ([4]; 336 h): 1.13 % ID Th-227/g organ
Th-227 in Kidneys ([4]; 336 h): 3.41 % ID Th-227/g organ
Th-227 in Liver ([4]; 336 h): 0.31 % ID Th-227/g organ
Th-227 in Spleen ([4]; 336 h): 0.70 % ID Th-227/g organ
Th-227 in Tumor ([4]; 336 h): 2.78 % ID Th-227/g organ
Th-227 in salivary glands ([4]; 336 h): 1.29 % ID Th-227/g organ
